Results published in patent US8143254B2, “Methods for modulating ion channels” (Cornell Research Foundation, Inc., priority 2005, dated 2012).
Like-named read-outs stand apart in the source and are kept apart here.

Biological target: T1, Kv2.1 (Rattus norvegicus, UniProt P15387)
T1 construct: expressed in transfected cells; host or cells: Xenopus laevis oocytes (cRNA injection, pGA1 vector)
Experiment: Two-electrode voltage clamp (TEVC) of Xenopus oocytes expressing Kv2.1, bath-applied compound
Format: cell-based
Details: for effect on Kv2.1 currents: 1 mM, bath applied; for slope of dose response curve: Kv2.1, Example 8; for relative sensitivity of Kv2.1 and Kv3.4: Kv2.1 versus Kv3.4; for mean inhibition at 0 mV relative to +60 mV: Kv2.1, voltage dependence of block
Text: The ion channel subunit genes are in expression vectors that facilitate in vitro transcription of channel cRNA using the Ambion mMessage mMachine in vitro transcription kit. cDNA constructs are column-purified, linearized with the appropriate restriction enzyme that cuts a single site following the polyA tail, then purified by precipitation and transcribed in vitro using a promoter, such as T7, T3 and SP6. Transcribed cRNA is purified by precipitation and resuspended in RNAse-free water ready for injection. Each transcription can provide enough cRNA for several months of experiments.
Stage V-VI Xenopus oocytes are separated into small groups using forceps, defolliculated by agitation in Ca^2+-free Ringer solution containing collagenase for one hour, washed, then stored at 15° C. in full Ringers solution before injection. cRNA sufficient to give 1-10 μA of current at physiological voltages for each channel type is injected into Xenopus oocytes (selected by appearance for overall health and uniformity of color) using a Sutter manual injector (typically 0.1-5 ng cRNA in a volume of 25-50 nl). The oocytes are then stored for 1-3 days at 15° C. before TEVC recording. Beta subunit cRNA is co-injected as appropriate, typically 2 ng per oocyte.
Whole cell oocyte experiments are performed using a Warner OC-725C amplifier and pClamp9 software with oocytes bathed in a small-volume Warner oocyte bath and viewed with a Fisher dissection microscope. Bath solution for whole cell oocyte recordings, e.g., for potassium channel analysis, is generally (in mM): 96 NaCl, 4 KCl, 1 MgCl2, 0.3 CaCl2, 10 HEPES (Ph 7.4); whole-cell oocyte TEVC pipettes are filled with 3 M KCl. Oocyte patches are studies using an Axon Instruments small-volume bath, viewed with an Olympus IX50 inverted microscope, and recordings made using an Axon Multiclamp 700 A Amplifier and pCLAMP9 software (Axon Instruments). Extracellular solution, e.g., for potassium channel analysis, is generally (in mM): 135 NaCl, 5 KCl, 1.2 MgCl2, 5 HEPES, 2.5 CaCl2, 10 D-glucose (Ph 7.4). Intracellular solution, e.g., for potassium channel analysis, is generally (in mM): 10 NaCl, 117 KCl, 2 MgCl2, 11 HEPES, 11 EGTA, ICaCl2 (Ph 7.2). Patch pipettes are approximately 3-5 MΩ resistance when filled with recording solution.
Quantitative aspects of ion action on ion channels are compared using standard pulse protocols. Pulse times and voltages will vary according to which currents are being studied. […] Drug inhibition constants are calculated after generating a dose response curve by fitting with a logistic dose-response function (see equation (i) below). Typically, 5-20 cells per group are recorded from for heterologous expression experiments. Values are to be stated as mean±SEM with statistical significance set at p<0.05 (unpaired students t-test, ANOVA or the Mann-Whitney Rank Sum Test as appropriate).
Injected oocytes, bathed in bath solution containing 4 mM KCl, unless otherwise stated, are impaled with current and voltage electrodes and clamped at −80 mV holding potential using a Warner OC-725C amplifier. […] Drug concentrations are chosen to ensure inhibition values between 0 and 90-100% with at least 3 values within the linear portion of the curve so that the inhibition constant (Ki) can be calculated accurately by fitting with a logistic dose-response function (formula (i)) using the Origin 6.1 graph package.
Kv2.1 mutants were constructed using the QuickChange Multi Site-Directed Mutagenesis Kit (Stratagene, La Jolla, Calif.). […] For oocyte expression, Kv3.4 was in pBF1, Kv4.2 was in pRAT. cRNA transcripts were produced from SacII-linearized (Kv2.1), Mlullinearized (Kv3.4) and Not1-linearized (Kv4.2) DNA templates using the T3 (Kv2.1), SP6 (Kv3.4) and T7 (Kv4.2) mMessage mMachine kits (Ambion, Austin, Tex.). cRNA was quantified by spectrophotometry and its size integrity verified by gel electophoresis.

[1] = IC50, Kv2.1, logistic dose response fit, Example 8

T1 sequence (P15387 whole entry): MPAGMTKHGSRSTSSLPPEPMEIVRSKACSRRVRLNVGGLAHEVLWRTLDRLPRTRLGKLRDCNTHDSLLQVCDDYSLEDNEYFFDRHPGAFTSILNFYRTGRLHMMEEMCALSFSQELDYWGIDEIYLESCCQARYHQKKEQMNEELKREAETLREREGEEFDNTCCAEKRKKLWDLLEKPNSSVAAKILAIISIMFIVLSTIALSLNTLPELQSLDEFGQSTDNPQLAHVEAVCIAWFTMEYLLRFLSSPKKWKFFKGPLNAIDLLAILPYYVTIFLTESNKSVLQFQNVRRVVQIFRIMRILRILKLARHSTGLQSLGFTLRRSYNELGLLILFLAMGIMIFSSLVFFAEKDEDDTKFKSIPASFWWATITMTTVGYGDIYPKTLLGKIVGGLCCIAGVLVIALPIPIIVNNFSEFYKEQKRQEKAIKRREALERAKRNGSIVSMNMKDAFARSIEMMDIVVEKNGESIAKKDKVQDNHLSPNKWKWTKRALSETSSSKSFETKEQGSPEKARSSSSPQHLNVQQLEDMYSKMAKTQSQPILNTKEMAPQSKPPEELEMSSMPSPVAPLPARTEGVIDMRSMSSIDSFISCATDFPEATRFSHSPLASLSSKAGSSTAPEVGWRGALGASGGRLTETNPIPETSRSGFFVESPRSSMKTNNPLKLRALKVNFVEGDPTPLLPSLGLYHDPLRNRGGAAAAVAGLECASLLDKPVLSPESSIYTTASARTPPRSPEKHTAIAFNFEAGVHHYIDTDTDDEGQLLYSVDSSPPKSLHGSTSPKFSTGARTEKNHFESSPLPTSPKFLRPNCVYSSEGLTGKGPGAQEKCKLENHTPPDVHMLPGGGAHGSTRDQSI

Structure (SMILES) | effect on Kv2.1 currents | slope of dose response curve | relative sensitivity of Kv2.1 and Kv3.4 | mean inhibition at 0 mV relative to +60 mV [fold] | p (Hill slope) of logistic dose-response fit (Kv2.1 alone, Example 4) | IC50 [1] [µM] | further results
c1cc(C[N+]23CCN(CC2)CC3)ccc1C[N+]12CCN(CC1)CC2 [JC638.2α, α,α′-[bis(4-aza-1-azoniabicyclo[2.2.2]octanyl)]p-xylene] | significant inhibition | 1.4±0.1 | significantly differentiate between Kv2.1 and Kv3.4 |  |  |  | IC50 (Kv2.1, logistic dose response fit, Example 8, read-out: IC50): 186 ± 17 µM; voltage dependence of block (inhibition attenuated at more positive voltages): voltage dependent block
CCCCCCCCCCCC[N+]12CCN(CC1)CC2 [JE188, 1-aza-4-azonia-4-dodecylbicyclo[2.2.2]octane] |  | 1.4±0.1 |  | 3 | 1.4±0.1 |  | inhibition of Kv2.1 (50 μM): significantly inhibited; inhibition of Kv2.1 (250 μM): almost complete inhibition; IC50 (Kv2.1 alone, external bath application, Example 4, read-out: x0 of logistic dose-response fit of current inhibition (converted)): 23.3 ± 2.1 µM; sensitivity of Kv2.1 currents to compound relative to tetraethylammonium (externally applied): 500 fold
CCCCCCCCCCCCCCCC[N+]12CCN(CC1)CC2 [TA279, 1-aza-4-azonia-4-hexadecylbicyclo[2.2.2]octane] |  | 0.6±0.4 |  | 3 | 0.8±0.1 | 1.9 ± 3.6 | sensitivity of Kv2.1 currents to TA279 relative to JE188: 20 fold; inhibition of Kv2.1 (1 μM): inhibiting; inhibition of Kv2.1 (5 mM): almost complete inhibition; time for washout (compared with TEA): several minutes; IC50 (x0 of logistic dose-response fit of current inhibition, Kv2.1 alone, external bath application, Example 4): 1 ± 0.8 µM
C(CC[N+]12CCN(CC1)CC2)C[N+]12CCN(CC1)CC2 [TG26] | less effective than TG27 |  | Kv2.1 was more sensitive than Kv3.4 |  |  |  | 
C(CCCC[N+]12CCN(CC1)CC2)CCC[N+]12CCN(CC1)CC2 [TG27, 1,8-[bis(4-aza-1-azoniabicyclo[2.2.2]octanyl)]octane] |  | 2.1±0.8 | Kv2.1 was more sensitive than Kv3.4 |  |  | 270 ± 66.4 | 
